Molecular target: T1, Cdc7 (BEV coexpressed huCDC7/DBF4) (Homo sapiens, UniProt O00311)
T1 construct: made in house; host or cells: baculovirus expression vector (BEV) co-expression
Experiment: Cdc7 enzyme inhibition assay ([33P]-ATP, biotinylated peptide substrate, FlashPlate)
Type: biochemical
Conditions: Ki generated from IC50 assuming ATP-competitive inhibition; 1 μM ATP, apparent ATP Km 0.7 μM; 1 hr reaction
Protocol: This example describes the assays that may be used to identify compounds having kinase activity.
Cdc7 (BEV coexpressed huCDC7/DBF4) is prepared internally. Cdc7 assays are conducted as follows with final concentrations as listed. In 384-well v-bottom polypropylene plates, 6 μL compound (2% DMSO), is mixed with 6 μL of Cdc7 (2 ug/mL), and Jerini peptide substrate A-A11 (biotin-C6linker-[…]) (2 μM), followed by immediate initiation with 6 μL […] (1 μM, 20 mCi/μmol) using a reaction buffer comprising 25 mM HEPES, pH 7.5, 1 mM DTT, 10 mM MgCl2, 100 μM, Na3VO4, 0.075 mg/ml Triton X-100. Reactions are quenched after 1 hr by the addition of 90 μL stop buffer (50 mM EDTA, 2M NaCl).
Table 1 depicts enzyme inhibition data (Ki) for exemplary compounds.

T1 sequence (O00311 whole entry): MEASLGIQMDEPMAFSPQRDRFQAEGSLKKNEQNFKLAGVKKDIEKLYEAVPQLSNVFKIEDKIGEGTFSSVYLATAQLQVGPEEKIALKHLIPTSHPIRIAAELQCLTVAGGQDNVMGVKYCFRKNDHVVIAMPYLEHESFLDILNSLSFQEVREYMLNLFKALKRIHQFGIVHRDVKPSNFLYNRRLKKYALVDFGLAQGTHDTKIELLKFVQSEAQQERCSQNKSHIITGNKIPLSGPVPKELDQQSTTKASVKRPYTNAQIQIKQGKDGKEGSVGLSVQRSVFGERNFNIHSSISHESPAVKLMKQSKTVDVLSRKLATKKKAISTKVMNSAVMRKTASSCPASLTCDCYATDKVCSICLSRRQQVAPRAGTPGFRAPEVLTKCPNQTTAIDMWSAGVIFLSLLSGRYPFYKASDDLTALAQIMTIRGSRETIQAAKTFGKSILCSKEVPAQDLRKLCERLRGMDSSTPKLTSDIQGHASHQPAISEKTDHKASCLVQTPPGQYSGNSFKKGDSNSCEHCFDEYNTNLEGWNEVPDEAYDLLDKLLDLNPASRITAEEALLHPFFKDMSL
T1 sequence (Q9UBU7 whole entry partner): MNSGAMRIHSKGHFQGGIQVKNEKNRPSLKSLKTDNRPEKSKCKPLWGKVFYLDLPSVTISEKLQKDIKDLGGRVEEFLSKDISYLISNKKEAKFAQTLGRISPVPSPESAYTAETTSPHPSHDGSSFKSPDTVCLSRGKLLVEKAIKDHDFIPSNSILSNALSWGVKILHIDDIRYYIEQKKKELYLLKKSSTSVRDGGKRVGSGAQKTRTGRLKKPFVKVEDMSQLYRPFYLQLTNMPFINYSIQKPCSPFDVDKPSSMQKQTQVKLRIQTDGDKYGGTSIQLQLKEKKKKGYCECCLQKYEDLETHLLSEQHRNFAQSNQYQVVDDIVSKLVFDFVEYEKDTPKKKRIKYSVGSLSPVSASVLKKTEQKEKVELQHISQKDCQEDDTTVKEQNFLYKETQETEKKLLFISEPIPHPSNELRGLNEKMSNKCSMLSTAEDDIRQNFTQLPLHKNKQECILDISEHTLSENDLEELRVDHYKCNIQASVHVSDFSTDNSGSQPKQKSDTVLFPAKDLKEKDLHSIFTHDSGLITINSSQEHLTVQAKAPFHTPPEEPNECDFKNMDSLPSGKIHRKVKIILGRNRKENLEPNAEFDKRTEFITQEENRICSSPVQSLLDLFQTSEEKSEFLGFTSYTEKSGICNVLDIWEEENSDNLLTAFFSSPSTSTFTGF

Row | Ki | SMILES
1 | < 10 nM | Cc1ccccc1-c1nc(-c2c[nH]c3ncccc23)cc(=O)[nH]1 [Example 33, 2-(2-methylphenyl)-6-(1H-pyrrolo[2,3-b]pyridin-3-yl)pyrimidin-4(3H)-one]
2 | < 10 nM | O=c1cc(-c2c[nH]c3ncccc23)nc(NCCO)[nH]1 [Example 19, 2-[(2-hydroxyethyl)amino]-6-(1H-pyrrolo[2,3-b]pyridin-3-yl)pyrimidin-4(3H)-one]
3 | < 10 nM | COc1ccc(C(F)(F)F)cc1-c1cc(-c2c[nH]c3ncccc23)cc(=O)[nH]1 [Example 46, 6-[2-methoxy-5-(trifluoromethyl)phenyl]-4-(1H-pyrrolo[2,3-b]pyridin-3-yl)pyridin-2(1H)-one]
4 | < 10 nM | O=c1cc(-c2c[nH]c3ncccc23)cc(-c2cccc(Cl)c2)[nH]1 [Example 42, 6-(3-chlorophenyl)-4-(1H-pyrrolo[2,3-b]pyridin-3-yl)pyridin-2(1H)-one]
5 | < 10 nM | O=c1cc(-c2c[nH]c3ncccc23)nc(NCCCn2ccnc2)[nH]1 [Example 30, 2-{[3-(1H-imidazol-1-yl)propyl]amino}-6-(1H-pyrrolo[2,3-b]pyridin-3-yl)pyrimidin-4(3H)-one]
6 | < 10 nM | O=c1cc(-c2c[nH]c3ncccc23)cc(-c2ccc(Cl)cc2F)[nH]1 [Example 45, 6-(4-chloro-2-fluorophenyl)-4-(1H-pyrrolo[2,3-b]pyridin-3-yl)pyridin-2(1H)-one]
7 | < 10 nM | O=c1cc(-c2c[nH]c3ncccc23)nc(NC2CCCCCC2)[nH]1 [Example 14, 2-(cycloheptylamino)-6-(1H-pyrrolo[2,3-b]pyridin-3-yl)pyrimidin-4(3H)-one]
8 | < 10 nM | O=c1cc(-c2c[nH]c3ncccc23)nc(N2CCC(CO)CC2)[nH]1 [Example 21, 2-[4-(hydroxymethyl)piperidin-1-yl]-6-(1H-pyrrolo[2,3-b]pyridin-3-yl)pyrimidin-4(3H)-one]
9 | < 10 nM | Cc1cccc(-c2cc(-c3c[nH]c4ncccc34)cc(=O)[nH]2)c1C [Example 37, 6-(2,3-dimethylphenyl)-4-(1H-pyrrolo[2,3-b]pyridin-3-yl)pyridin-2(1H)-one]
10 | < 10 nM | O=c1cc(-c2c[nH]c3ncccc23)cc(-c2cccc(N3CCOCC3)c2)[nH]1 [Example 50, 6-[3-(morpholin-4-yl)phenyl]-4-(1H-pyrrolo[2,3-b]pyridin-3-yl)pyridin-2(1H)-one]
11 | < 10 nM | O=c1cc(-c2c[nH]c3ncccc23)nc(NC2CCNCC2)[nH]1 [Example 6, 2-(piperidin-4-ylamino)-6-(1H-pyrrolo[2,3-b]pyridin-3-yl)pyrimidin-4(3H)-one]

The next lines start with the compound.

Row | SMILES | Ki
12 | COc1cccc(-c2cc(-c3c[nH]c4ncccc34)cc(=O)[nH]2)c1OC [Example 43, 6-(2,3-dimethoxyphenyl)-4-(1H-pyrrolo[2,3-b]pyridin-3-yl)pyridin-2(1H)-one] | < 10 nM
13 | C[C@@H](Nc1nc(-c2c[nH]c3ncccc23)cc(=O)[nH]1)c1ccccc1 [Example 12, 2-{[(1R)-1-phenylethyl]amino}-6-(1H-pyrrolo[2,3-b]pyridin-3-yl)pyrimidin-4(3H)-one] | < 10 nM
14 | O=c1cc(-c2c[nH]c3ncccc23)cc(-c2ccc3ccccc3c2)[nH]1 [Example 41, 6-(2-naphthyl)-4-(1H-pyrrolo[2,3-b]pyridin-3-yl)pyridin-2(1H)-one] | < 10 nM
15 | CNCCNc1nc(-c2c[nH]c3ncccc23)cc(=O)[nH]1 [Example 16, 2-{[2-(methylamino)ethyl]amino}-6-(1H-pyrrolo[2,3-b]pyridin-3-yl)pyrimidin-4(3H)-one] | < 10 nM
16 | O=c1cc(-c2c[nH]c3ncccc23)cc(N[C@H]2CC[C@H](NS(=O)(=O)C3CC3)CC2)[nH]1 [Example 57, N-(trans-4-{[6-oxo-4-(1H-pyrrolo[2,3-b]pyridin-3-yl)-1,6-dihydropyridin-2-yl]amino}cyclohexyl)cyclopropanesulfonamide] | < 10 nM
17 | COCCNc1nc(-c2c[nH]c3ncccc23)cc(=O)[nH]1 [Example 18, 2-[(2-methoxyethyl)amino]-6-(1H-pyrrolo[2,3-b]pyridin-3-yl)pyrimidin-4(3H)-one] | < 10 nM
18 | N[C@H]1CC[C@H](Nc2nc(-c3c[nH]c4ncccc34)cc(=O)[nH]2)CC1 [Example 4, 2-[(trans-4-aminocyclohexyl)amino]-6-(1H-pyrrolo[2,3-b]pyridin-3-yl)pyrimidin-4(3H)-one] | < 10 nM
19 | O=c1cc(-c2c[nH]c3ncccc23)nc(N2CCSCC2)[nH]1 [Example 15, 6-(1H-pyrrolo[2,3-b]pyridin-3-yl)-2-(thiomorpholin-4-yl)pyrimidin-4(3H)-one] | < 10 nM
20 | COc1ncccc1-c1cc(-c2c[nH]c3ncccc23)cc(=O)[nH]1 [Example 47, 2′-methoxy-4-(1H-pyrrolo[2,3-b]pyridin-3-yl)-2,3′-bipyridin-6(1H)-one] | < 10 nM
21 | O=c1cc(-c2c[nH]c3ncccc23)cc(-c2cccc(OC(F)(F)F)c2)[nH]1 [Example 35, 4-(1H-pyrrolo[2,3-b]pyridin-3-yl)-6-[3-(trifluoromethoxy)phenyl]pyridin-2(1H)-one] | < 10 nM
22 | O=c1cc(-c2c[nH]c3ncccc23)nc(NC2CCCCC2)[nH]1 [Example 1, 2-(cyclohexylamino)-6-(1H-pyrrolo[2,3-b]pyridin-3-yl)pyrimidin-4(3H)-one] | < 10 nM
23 | O=c1cc(-c2c[nH]c3ncccc23)nc(NCc2cc(F)cc(F)c2)[nH]1 [Example 5, 2-[(3,5-difluorobenzyl)amino]-6-(1H-pyrrolo[2,3-b]pyridin-3-yl)pyrimidin-4(3H)-one] | < 10 nM
